Measured values as given in the NIST ThermoML archive (doi:10.1016/j.jct.2018.12.012).
± gives the expanded uncertainty stated by the source.

Assay: xn = mol fraction of the nth substance listed
Details: 100 kPa, Liquid; for speed of sound: Frequency=3 MHz, Single path-length method; for mass density: Vibrating tube method

CC(C)NC(C)C [diisopropylamine] + CCCC(C)O
Details | mass density, 293.15 K [kg/m3] | mass density, 298.15 K [kg/m3] | mass density, 303.15 K [kg/m3] | mass density, 308.15 K [kg/m3] | speed of sound, 293.15 K [m/s] | speed of sound, 298.15 K [m/s] | speed of sound, 303.15 K [m/s] | speed of sound, 308.15 K [m/s]
x1 = 0.0998 | 803.093 ± 1.5 | 798.887 ± 1.5 | 794.621 ± 1.5 | 790.277 ± 1.5 | 1248.1 ± 6.5 | 1229 ± 6.5 | 1209.9 ± 6.5 | 1190.3 ± 6.5
x1 = 0.2001 | 795.724 ± 1.5 | 791.357 ± 1.5 | 786.936 ± 1.5 | 782.457 ± 1.5 | 1241.1 ± 6.5 | 1220.9 ± 6.5 | 1200.8 ± 6.5 | 1181.5 ± 6.5
x1 = 0.3 | 787.848 ± 1.5 | 783.455 ± 1.5 | 778.721 ± 1.5 | 774.03 ± 1.5 | 1230 ± 6.4 | 1209.5 ± 6.4 | 1189.3 ± 6.4 | 1168.8 ± 6.4
x1 = 0.4001 | 778.463 ± 1.5 | 773.871 ± 1.5 | 769.242 ± 1.5 | 764.565 ± 1.5 | 1216.8 ± 6.4 | 1196.3 ± 6.4 | 1175.3 ± 6.4 | 1154.3 ± 6.4
x1 = 0.5006 | 768.901 ± 1.4 | 764.237 ± 1.4 | 759.54 ± 1.4 | 754.802 ± 1.4 | 1201.8 ± 6.4 | 1180.2 ± 6.4 | 1158.9 ± 6.4 | 1137.8 ± 6.4
x1 = 0.6001 | 758.906 ± 1.4 | 754.192 ± 1.4 | 749.437 ± 1.4 | 744.665 ± 1.4 | 1185.2 ± 6.4 | 1164 ± 6.4 | 1142.1 ± 6.4 | 1120.9 ± 6.4
x1 = 0.678 | 751.419 ± 1.4 | 746.673 ± 1.4 | 741.893 ± 1.4 | 737.079 ± 1.4 | 1172.8 ± 6.3 | 1151 ± 6.3 | 1129.1 ± 6.3 | 1107.4 ± 6.3
x1 = 0.7975 | 738.446 ± 1.4 | 733.65 ± 1.4 | 728.827 ± 1.4 | 723.973 ± 1.4 | 1152.6 ± 6.3 | 1130.2 ± 6.3 | 1108.1 ± 6.3 | 1086.2 ± 6.3
x1 = 0.8993 | 728.166 ± 1.4 | 723.262 ± 1.4 | 718.39 ± 1.4 | 713.692 ± 1.4 | 1132.8 ± 6.3 | 1110.2 ± 6.3 | 1087.8 ± 6.3 | 1063.8 ± 6.3
x1 = 1 | 717.305 ± 1.4 | 712.441 ± 1.4 | 707.55 ± 1.4 | 702.661 ± 1.4 | 1116.4 ± 6.3 | 1093.8 ± 6.3 | 1071.1 ± 6.3 | 1043.5 ± 6.3

CC(C)NC(C)C [diisopropylamine] + CCC(C)O
Details | mass density, 293.15 K [kg/m3] | mass density, 298.15 K [kg/m3] | mass density, 303.15 K [kg/m3] | mass density, 308.15 K [kg/m3] | speed of sound, 293.15 K [m/s] | speed of sound, 298.15 K [m/s] | speed of sound, 303.15 K [m/s] | speed of sound, 308.15 K [m/s]
x1 = 0.1005 | 799.801 ± 1.4 | 795.472 ± 1.4 | 791.07 ± 1.4 | 786.592 ± 1.4 | 1230.8 ± 6.2 | 1211.7 ± 6.2 | 1192.3 ± 6.2 | 1173.4 ± 6.2
x1 = 0.1994 | 792.039 ± 1.4 | 787.516 ± 1.4 | 782.932 ± 1.4 | 778.279 ± 1.4 | 1226.2 ± 6.2 | 1205.7 ± 6.2 | 1185.3 ± 6.2 | 1165 ± 6.2
x1 = 0.3003 | 783.508 ± 1.4 | 778.829 ± 1.4 | 774.115 ± 1.4 | 769.331 ± 1.4 | 1217.3 ± 6.2 | 1196.2 ± 6.2 | 1175.6 ± 6.2 | 1154 ± 6.2
x1 = 0.3999 | 774.58 ± 1.4 | 769.813 ± 1.4 | 765.003 ± 1.4 | 760.146 ± 1.4 | 1205.6 ± 6.2 | 1183.8 ± 6.2 | 1162.3 ± 6.2 | 1141.1 ± 6.2
x1 = 0.5 | 764.776 ± 1.4 | 759.954 ± 1.4 | 755.099 ± 1.4 | 750.197 ± 1.4 | 1191 ± 6.2 | 1169.2 ± 6.2 | 1147.4 ± 6.2 | 1125.6 ± 6.2
x1 = 0.5961 | 755.456 ± 1.4 | 750.604 ± 1.4 | 745.72 ± 1.4 | 740.801 ± 1.4 | 1176.6 ± 6.2 | 1154.3 ± 6.2 | 1132.2 ± 6.2 | 1110.4 ± 6.2
x1 = 0.6964 | 745.553 ± 1.4 | 740.705 ± 1.4 | 735.88 ± 1.4 | 731.103 ± 1.4 | 1160.7 ± 6.3 | 1139 ± 6.3 | 1116.3 ± 6.3 | 1094.2 ± 6.3
x1 = 0.7997 | 736.007 ± 1.4 | 731.125 ± 1.4 | 726.228 ± 1.4 | 721.299 ± 1.4 | 1145.2 ± 6.3 | 1122.7 ± 6.3 | 1100.3 ± 6.3 | 1078.3 ± 6.3
x1 = 0.8967 | 726.62 ± 1.4 | 721.759 ± 1.4 | 716.873 ± 1.4 | 711.96 ± 1.4 | 1129.7 ± 6.3 | 1107 ± 6.3 | 1084.5 ± 6.3 | 1062.5 ± 6.3
x1 = 1 | 717.305 ± 1.4 | 712.441 ± 1.4 | 707.55 ± 1.4 | 702.661 ± 1.4 | 1116.4 ± 6.3 | 1093.8 ± 6.3 | 1071.1 ± 6.3 | 1043.5 ± 6.3
